The target of series [1] is T1, Protein deacetylase HDAC6 (Homo sapiens, UniProt Q9UBN7).
T1 sequence (Q9UBN7 whole entry): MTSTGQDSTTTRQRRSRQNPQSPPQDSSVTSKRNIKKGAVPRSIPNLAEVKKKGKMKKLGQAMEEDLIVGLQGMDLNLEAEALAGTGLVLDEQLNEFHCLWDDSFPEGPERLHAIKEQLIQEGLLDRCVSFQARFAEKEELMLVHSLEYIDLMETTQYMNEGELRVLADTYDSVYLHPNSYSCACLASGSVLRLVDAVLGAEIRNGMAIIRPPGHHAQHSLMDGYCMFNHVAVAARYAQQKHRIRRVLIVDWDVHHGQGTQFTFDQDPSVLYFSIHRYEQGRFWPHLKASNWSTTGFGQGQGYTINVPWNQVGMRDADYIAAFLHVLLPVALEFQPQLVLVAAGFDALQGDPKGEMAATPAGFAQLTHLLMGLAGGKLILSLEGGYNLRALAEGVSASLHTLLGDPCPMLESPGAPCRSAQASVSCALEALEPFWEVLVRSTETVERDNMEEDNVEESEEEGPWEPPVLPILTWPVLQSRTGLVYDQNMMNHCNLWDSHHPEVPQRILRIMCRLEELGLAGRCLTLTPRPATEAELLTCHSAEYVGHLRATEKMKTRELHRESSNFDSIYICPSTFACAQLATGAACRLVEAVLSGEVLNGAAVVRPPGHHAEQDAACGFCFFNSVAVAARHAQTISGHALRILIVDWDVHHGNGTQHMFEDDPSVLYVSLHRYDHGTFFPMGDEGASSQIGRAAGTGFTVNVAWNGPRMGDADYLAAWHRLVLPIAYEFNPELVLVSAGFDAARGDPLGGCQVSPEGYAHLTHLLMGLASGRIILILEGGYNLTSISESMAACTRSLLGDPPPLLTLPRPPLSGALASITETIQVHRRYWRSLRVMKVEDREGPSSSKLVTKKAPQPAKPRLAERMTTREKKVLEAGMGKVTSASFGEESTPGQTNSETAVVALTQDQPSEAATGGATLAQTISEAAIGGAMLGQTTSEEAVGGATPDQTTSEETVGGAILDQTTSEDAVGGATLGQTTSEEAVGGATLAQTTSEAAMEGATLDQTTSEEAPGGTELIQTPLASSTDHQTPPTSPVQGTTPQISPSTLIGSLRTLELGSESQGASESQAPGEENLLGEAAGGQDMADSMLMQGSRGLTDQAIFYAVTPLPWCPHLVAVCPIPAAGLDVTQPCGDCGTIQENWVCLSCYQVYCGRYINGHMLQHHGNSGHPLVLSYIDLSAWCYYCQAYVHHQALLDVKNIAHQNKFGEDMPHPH
Briefly: Inhibition of recombinant human HDAC6.

A further series has as its target Histone deacetylase 1 (Homo sapiens, UniProt Q13547). Briefly: Inhibition of recombinant human HDAC1.
Series [2] is described as follows: Retention time of the compound. Format: physicochemical.
Another series has as its target Histone deacetylase. Nature of the series: Inhibition of HDAC in human HeLa nuclear extract. Type of series: protein assay.

What is called IC50 is the concentration that gives 50% inhibition.

Histone deacetylase 1, sequence (Q13547 whole entry): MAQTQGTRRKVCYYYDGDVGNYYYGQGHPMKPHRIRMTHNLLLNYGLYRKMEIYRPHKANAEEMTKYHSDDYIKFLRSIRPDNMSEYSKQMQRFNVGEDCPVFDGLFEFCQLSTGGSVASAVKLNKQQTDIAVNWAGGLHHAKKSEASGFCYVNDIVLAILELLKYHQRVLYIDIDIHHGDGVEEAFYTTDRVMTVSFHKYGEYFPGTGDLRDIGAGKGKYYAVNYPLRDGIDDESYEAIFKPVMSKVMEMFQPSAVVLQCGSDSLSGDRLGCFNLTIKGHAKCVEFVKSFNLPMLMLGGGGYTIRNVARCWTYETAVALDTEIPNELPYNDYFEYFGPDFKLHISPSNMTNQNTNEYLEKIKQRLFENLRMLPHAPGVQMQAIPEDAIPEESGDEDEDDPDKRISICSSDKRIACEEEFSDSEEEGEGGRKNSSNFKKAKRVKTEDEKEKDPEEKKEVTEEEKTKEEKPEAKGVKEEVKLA

For the compound `Cn1nc(-c2ccc(F)cc2)cc1C(=O)NCCCCCCS`, the IC50 in series [1] is 2900 nM; at Histone deacetylase 1 it was greater than 10000 nM; on Histone deacetylase, 3200 nM. This compound also registered a Retention_time in series [2] of 5.16 min.
The corresponding values for `CCCn1nc(-c2ccc(F)cc2)cc1C(=O)NCCCCCCS` are greater than 10000 nM, greater than 10000 nM, greater than 10000 nM and 6.96 min.
On the same counts, the results for `Cc1c(-c2ccc(F)cc2)nn(CCCO)c1C(=O)NCCCCCCS` are 5000 nM, greater than 10000 nM, greater than 10000 nM and 3.71 min.
Take `CCn1nc(-c2ccc(F)cc2)cc1C(=O)NCCCCCCS`: the IC50 in series [1] is 5000 nM; on Histone deacetylase 1, greater than 10000 nM; at Histone deacetylase it was greater than 10000 nM. Further, the Retention_time in series [2] is 5.79 min.
In the case of `O=C(O)CCn1nc(-c2ccc(F)cc2)cc1C(=O)NCCCCCCS`, the IC50 in series [1] was 210 nM; at Histone deacetylase 1, 650 nM; at Histone deacetylase it was 300 nM. Besides, the Retention_time in series [2] is listed as 2.99 min.
On the same counts, the results for `Cc1c(-c2ccc(F)cc2)n[nH]c1C(=O)NCCCCCCS` are 4400 nM, greater than 10000 nM, greater than 10000 nM and 4.08 min.
As for `C/C=C1\NC(=O)[C@H]2CSSCC/C=C/[C@H](CC(=O)N[C@H](C(C)C)C(=O)N2)OC(=O)[C@H](C(C)C)NC1=O` [ROMIDEPSIN], the IC50 on Histone deacetylase 1 worked out at 140 nM.
In the case of `CCCCn1nc(-c2ccc(F)cc2)cc1C(=O)NCCCCCCS`, the IC50 (in series [1]; at Histone deacetylase 1; against Histone deacetylase) was greater than 10000 nM throughout. Besides, the Retention_time in series [2] amounted to 11.92 min.
Turning to `O=C(NCCCCCCS)c1cc(-c2ccc(F)cc2)nn1Cc1ccccc1`, the IC50 (in series [1]; at Histone deacetylase 1; at Histone deacetylase) was greater than 10000 nM each time. Also, the Retention_time in series [2] is on record as 7.52 min.
For `O=C(CS)NCCNC(=O)c1cc(-c2ccc(F)cc2)[nH]n1`, the IC50 in series [1] is 1800 nM; on Histone deacetylase 1 it was 2300 nM; against Histone deacetylase, 2200 nM. In addition, the Retention_time in series [2] is 2.85 min.
On the same counts, the results for `O=C(CS)NCCCNC(=O)c1cc(-c2ccc(F)cc2)[nH]n1` are 880 nM, 1400 nM, 1500 nM and 3.25 min.
Consider `Cc1c(-c2ccc(F)cc2)nn(C)c1C(=O)NCCCCCCS`, for which the IC50 (in series [1]; at Histone deacetylase 1; against Histone deacetylase) was greater than 10000 nM in each case. In series [2], this compound returned a Retention_time of 4.77 min.
Take `O=C(NCCCCCCS)c1cc(-c2ccc(F)cc2)on1`: the IC50 in series [1] stood at 880 nM; on Histone deacetylase 1, 850 nM; against Histone deacetylase it was 980 nM. Besides, in series [2], the Retention_time came to 5.67 min.
The corresponding values for `Cn1nc(C(=O)NCCCCCCS)cc1-c1ccc(F)cc1` are 6900 nM, greater than 10000 nM, greater than 10000 nM and 3.86 min.
The corresponding values for `O=C(NCCCCCCS)c1cc(-c2ccc(F)cc2)n(Cc2ccccc2)n1` are greater than 10000 nM, greater than 10000 nM, greater than 10000 nM and 5.49 min.
The corresponding values for `O=C(NCCCCCS)c1cc(-c2ccc(F)cc2)[nH]n1` are 1100 nM, 2200 nM, 1900 nM and 2.85 min.
For the compound `O=C(O)Cn1nc(C(=O)NCCCCCCS)cc1-c1ccc(F)cc1`, the IC50 was 250 nM in series [1], 1900 nM on Histone deacetylase 1 and 660 nM on Histone deacetylase. In series [2], the Retention_time turned out to be 7.77 min.
The corresponding values for `O=C(O)Cn1nc(-c2ccc(F)cc2)cc1C(=O)NCCCCCCS` are 40 nM, 220 nM, 160 nM and 3.77 min.
The corresponding values for `CC(C)n1nc(-c2ccc(F)cc2)cc1C(=O)NCCCCCCS` are 7400 nM, greater than 10000 nM, greater than 10000 nM and 7.17 min.
The corresponding values for `O=C(NCCCCS)c1cc(-c2ccc(F)cc2)on1` are 4900 nM, greater than 10000 nM, greater than 10000 nM and 4.24 min.
`O=C(NCCCCCCS)c1cc(-c2ccc(F)cc2)n[nH]1`: the IC50 in series [1] came out at 760 nM; at Histone deacetylase 1 it was 580 nM; against Histone deacetylase, 690 nM. Moreover, the Retention_time in series [2] was 3.37 min.
In the case of `O=C(NCCCCCS)c1cc(-c2ccc(F)cc2)on1`, the IC50 is 1300 nM in series [1], 2100 nM at Histone deacetylase 1 and 3000 nM against Histone deacetylase. In series [2], this compound had a Retention_time of 5 min.
As to `O=C(CCS)NCCNC(=O)c1cc(-c2ccc(F)cc2)[nH]n1`, the IC50 (in series [1]; at Histone deacetylase 1; against Histone deacetylase) was greater than 10000 nM each time. The Retention_time in series [2] was 2.74 min.
As to `O=C(NCCCCCCS)c1cc(-c2ccc(F)cc2)nn1CCCO`, the IC50 in series [1] was found to be 470 nM; at Histone deacetylase 1 it was 1300 nM; at Histone deacetylase, 1200 nM. In addition, the Retention_time in series [2] was 3.81 min.
On the same counts, the results for `O=C(O)CCn1nc(C(=O)NCCCCCCS)cc1-c1ccc(F)cc1` are 330 nM, 2700 nM, 400 nM and 2.88 min.
For the compound `O=C(CCS)NCCCCNC(=O)c1cc(-c2ccc(F)cc2)[nH]n1`, the IC50 (in series [1]; on Histone deacetylase 1; at Histone deacetylase) was greater than 10000 nM each time. In series [2], this compound gave a Retention_time of 2.54 min.
Regarding `O=C(NCCCCCCS)c1cc(-c2ccc(F)cc2)n(CCO)n1`, the IC50 came out at 1400 nM in series [1], 3300 nM at Histone deacetylase 1 and 2100 nM against Histone deacetylase. Besides, the Retention_time in series [2] came out at 3.13 min.
On the same counts, the results for `O=C(O)CCCn1nc(C(=O)NCCCCCCS)cc1-c1ccc(F)cc1` are 450 nM, 1800 nM, 810 nM and 6.9 min.
On the same counts, the results for `O=C(NCCCS)c1cc(-c2ccc(F)cc2)on1` are 5800 nM, greater than 10000 nM, greater than 10000 nM and 3.37 min.
The corresponding values for `CCCCn1nc(C(=O)NCCCCCCS)cc1-c1ccc(F)cc1` are greater than 10000 nM, greater than 10000 nM, greater than 10000 nM and 6.79 min.
On to `CC(C)n1nc(C(=O)NCCCCCCS)cc1-c1ccc(F)cc1`, for which the IC50 (in series [1]; at Histone deacetylase 1; against Histone deacetylase) was greater than 10000 nM each time. The same compound gave a Retention_time in series [2] of 4.93 min.
On to `O=C(O)CCCn1nc(-c2ccc(F)cc2)cc1C(=O)NCCCCCCS`, for which the results for the IC50 (in series [1]; on Histone deacetylase 1; against Histone deacetylase) were 90 nM, 130 nM and 80 nM, respectively. In series [2], this compound showed a Retention_time of 13.54 min.
With `O=C(CS)NCCCCNC(=O)c1cc(-c2ccc(F)cc2)[nH]n1`, the IC50 was 2100 nM in series [1], greater than 10000 nM on Histone deacetylase 1 and 8600 nM at Histone deacetylase. This compound also had a Retention_time in series [2] of 2.94 min.
On the same counts, the results for `O=C(NCCCCCCS)c1cc(-c2ccc(F)cc2)n(CCCO)n1` are 850 nM, 3600 nM, 3100 nM and 3.19 min.
In the case of `O=C(NCCCCCCS)c1cc(-c2ccc(F)cc2)nn1CCCCO`, the half-maximal inhibitory concentration (IC50) in series [1] was 140 nM; on Histone deacetylase 1, 250 nM; against Histone deacetylase, 170 nM. This compound returned a Retention_time in series [2] of 3.66 min.
In the case of `O=C(NCCS)c1cc(-c2ccc(F)cc2)on1`, the half-inhibitory concentration (IC50) in series [1] is 6500 nM; on Histone deacetylase 1, greater than 10000 nM; on Histone deacetylase it was greater than 10000 nM. For the same compound, in series [2], the Retention_time came out at 2.91 min.
Take `O=C(NCCCCCCS)c1cc(-c2ccc(F)cc2)nn1CCO`: the IC50 in series [1] stood at 910 nM; at Histone deacetylase 1, 330 nM; on Histone deacetylase, 690 nM. The same compound registered a Retention_time in series [2] of 2.86 min.

For the origin of these results see ChEMBL document CHEMBL3758139, “Novel thiol-based histone deacetylase inhibitors bearing 3-phenyl-1H-pyrazole-5-carboxamide scaffold as surface recognition motif: Design, synthesis and SAR study” (Bioorg Med Chem Lett, 2016).
